test system: Human immunodeficiency virus 1; test: Antiviral activity against HIV1; type: functional, organism-based; conditions: Human immunodeficiency virus 1, read-out: pIC50 (converted)

Structure (SMILES)	IC50
N#Cc1c(N)cccc1S(=O)(=O)c1cccc(Cl)c1	0.59 µM
Cc1cc(Cl)cc(S(=O)(=O)c2cccc(N)c2C#N)c1	0.03 µM
N#Cc1c(N)cccc1[S+]([O-])c1cc(Cl)ccc1Cl (stereo not drawn)	9.84 µM
N#Cc1ccc(S(=O)(=O)c2cccc(N)c2C#N)cc1	80 µM
COc1ccccc1Sc1cccc(N)c1C#N	4.29 µM
N#Cc1c(N)cccc1[S+]([O-])c1cccc(C(F)(F)F)c1 (stereo not drawn)	40 µM
COc1cc(C)cc(Sc2cccc(N)c2C#N)c1	2 µM
Cc1ccccc1[S+]([O-])c1cccc(N)c1C#N (stereo not drawn)	92.9 µM
COc1ccccc1[S+]([O-])c1cccc(N)c1C#N (stereo not drawn)	4.8 µM
N#Cc1cccc([S+]([O-])c2cccc(N)c2C#N)c1 (stereo not drawn)	14.2 µM
N#Cc1c(N)cccc1S(=O)(=O)c1ccccc1Br	5 µM
N#Cc1cccc(Sc2cccc(N)c2C#N)c1	1.73 µM
N#Cc1c(N)cccc1Sc1cccc(C(F)(F)F)c1	12.8 µM
N#Cc1c(N)cccc1S(=O)(=O)c1cccc(Br)c1	0.539 µM
N#Cc1ccccc1[S+]([O-])c1cccc(N)c1C#N (stereo not drawn)	3.9 µM
Cc1cc(C)cc(Sc2cccc(N)c2C#N)c1	0.429 µM
Cc1cccc(Sc2cccc(N)c2C#N)c1	6.09 µM
N#Cc1ccccc1S(=O)(=O)c1cccc(N)c1C#N	5.4 µM
Cc1cc(C)cc(S(=O)(=O)c2cccc(N)c2C#N)c1	0.01 µM
Cc1ccccc1Sc1cccc(N)c1C#N	16 µM
N#Cc1cccc(S(=O)(=O)c2cccc(N)c2C#N)c1	2.4 µM

Structure (SMILES)	IC50
N#Cc1c(N)cccc1[S+]([O-])c1ccccc1Br (stereo not drawn)	39.2 µM
N#Cc1c(N)cccc1Sc1ccccc1Cl	4.1 µM
CCOc1cc(C)cc(S(=O)(=O)c2cccc(N)c2C#N)c1	0.06 µM
Cc1ccc([S+]([O-])c2cccc(N)c2C#N)cc1 (stereo not drawn)	49 µM
N#Cc1c(N)cccc1S(=O)(=O)c1cc(Cl)ccc1Cl	0.3 µM
N#Cc1c(N)cccc1S(=O)(=O)c1ccccc1Cl	4.1 µM
N#Cc1c(N)cccc1S(=O)(=O)c1cccc(C(F)(F)F)c1	3.5 µM
N#Cc1c(N)cccc1S(=O)(=O)c1ccc(Cl)cc1	3 µM
N#Cc1c(N)cccc1Sc1cccc(F)c1	9.79 µM
COc1cccc(Sc2cccc(N)c2C#N)c1	6 µM
N#Cc1c(N)cccc1Sc1ccccc1	14.6 µM
N#Cc1c(N)cccc1Sc1cccc(N)c1	31.5 µM
N#Cc1c(N)cccc1S(=O)(=O)c1ccccc1F	3 µM
Cc1cccc([S+]([O-])c2cccc(N)c2C#N)c1 (stereo not drawn)	29.2 µM
Cc1ccc(S(=O)(=O)c2cccc(N)c2C#N)cc1	9.51 µM
Cc1cc(C)cc([S+]([O-])c2cccc(N)c2C#N)c1 (stereo not drawn)	0.34 µM
Cc1ccccc1S(=O)(=O)c1cccc(N)c1C#N	2.3 µM
Cc1cccc(S(=O)(=O)c2cccc(N)c2C#N)c1	0.4 µM
N#Cc1c(N)cccc1Sc1ccccc1Br	30 µM
COc1cc(Sc2cccc(N)c2C#N)cc(C(F)(F)F)c1	5.11 µM
COc1cccc([S+]([O-])c2cccc(N)c2C#N)c1 (stereo not drawn)	16 µM

Structure (SMILES)	IC50
COc1ccc(S(=O)(=O)c2cccc(N)c2C#N)cc1	25 µM
COc1cc(C(F)(F)F)cc(S(=O)(=O)c2cccc(N)c2C#N)c1	0.09 µM
COc1cc(C)cc(S(=O)(=O)c2cccc(N)c2C#N)c1	0.05 µM
COc1cccc(S(=O)(=O)c2cccc(N)c2C#N)c1	0.899 µM
N#Cc1c(N)cccc1S(=O)(=O)c1ccccc1	2 µM
COc1ccccc1S(=O)(=O)c1cccc(N)c1C#N	0.6 µM
COc1cc([S+]([O-])c2cccc(N)c2C#N)cc(C(F)(F)F)c1 (stereo not drawn)	2.07 µM
N#Cc1c(N)cccc1Sc1cccc(Cl)c1	7.4 µM
CCCOc1cc(C)cc(S(=O)(=O)c2cccc(N)c2C#N)c1	0.06 µM
Cc1cc(Cl)cc([S+]([O-])c2cccc(N)c2C#N)c1 (stereo not drawn)	0.32 µM
N#Cc1c(N)cccc1S(=O)(=O)c1cc(Cl)cc(Cl)c1	0.07 µM
CCCCOc1cc(C)cc(S(=O)(=O)c2cccc(N)c2C#N)c1	0.6 µM
N#Cc1c(N)cccc1[S+]([O-])c1cccc(Br)c1 (stereo not drawn)	0.08 µM
Cc1cc(Br)cc(S(=O)(=O)c2cccc(N)c2C#N)c1	0.02 µM
N#Cc1c(N)cccc1[S+]([O-])c1ccc(Br)cc1 (stereo not drawn)	20.2 µM
Cc1cc(Cl)cc(Sc2cccc(N)c2C#N)c1	1.76 µM
N#Cc1c(N)cccc1Sc1cccc(Br)c1	5.11 µM
N#Cc1ccc(Sc2cccc(N)c2C#N)cc1	43.8 µM
Cc1cc(O)cc(S(=O)(=O)c2cccc(N)c2C#N)c1	0.429 µM
N#Cc1c(N)cccc1S(=O)(=O)c1ccc(Br)cc1	20 µM
N#Cc1c(N)cccc1S(=O)(=O)c1cccc(F)c1	3 µM
